According to patent US12281057B2 (VERTEX PHARMACEUTICALS INCORPORATED, priority 2017, dated 2025):
Like-named read-outs stand apart in the source and are kept apart here.

Target: truncated form of human NaV 1.8 with full channel activity (Homo sapiens, UniProt Q9Y5Y9)
Assay: E-VIPR Assay Method A for detecting and measuring Nav inhibition (HEK cells, membrane potential FRET dyes, electrical stimulation)
Assay type: cell-based
Details: HEK cells expressing human NaV 1.8, HS (human serum) in compound loading buffer, 11 point dose response, top dose 3 μM
From the text: E-VIPR Assay Method A for Detecting and Measuring Nav Inhibition Properties Sodium ion channels are voltage-dependent proteins that can be activated by inducing membrane voltage changes by applying electric fields. The electrical stimulation instrument and methods of use, referred to as E-VIPR, are described in International Publication No. WO 2002/008748 A3 and C.-J. Huang et al. Characterization of voltage-gated sodium channel blockers by electrical stimulation and fluorescence detection of membrane potential, 24 Nature Biotech. 439-46 (2006), both of which are incorporated by reference in their entirety. The instrument comprises a microtiter plate handler, an optical system for exciting the coumarin dye while simultaneously recording the coumarin and oxonol emissions, a waveform generator, a current- or voltage-controlled amplifier, and parallel electrode pairs that are inserted into assay plate wells. Under integrated computer control, this instrument passes user-programmed electrical stimulus protocols to cells within the wells of the microtiter plate. […] Sigma #F4135), 1% NEAA (Non-Essential Amino Acids, Life Tech #11140), 1% HEPES (Life Tech #15630), 1% Pen-Strep (Penicillin-Streptomycin; […] Cells were expanded in vented cap flasks, with 95% humidity and 5% CO2. Reagents and Stock Solutions: • 100 mg/mL Pluronic F-127 (Sigma #P2443), in dry DMSO • Compound Plates: […] 5% KIR 2.1 Bacmam virus (produced in-house), prepared as described in Section 3.3 of J. A. […] The solution was made by adding 10% Pluronic F127 stock equal to combined volumes of CC2-DMPE and DiSBAC6(3). The order of preparation was first mix Pluronic and CC2-DMPE, then add DiSBAC6(3), then while vortexing add Bath1/β-Cyclodextrin. […] Assay Protocol: […] Final DMSO concentration for all wells in the assay was 0.625% (0.75% DMSO was supplemented to the Compound Loading Buffer for a final DMSO concentration of 0.625%). […] 3) Cell plates were prepared. On the day of the assay, the media was aspirated, and the cells were washed three times with 80 μL of Bath-1 buffer, maintaining 25 μL residual volume in each well. 4) 25 μL per well of Hexyl Dye Solution was dispensed into the cell plates. The cells were incubated for 20 minutes at room temp or ambient conditions in darkness. 5) 80 μL per well of Compound Loading Buffer was dispensed into compound plates. 6) The cell plates were washed three times with 80 μL per well of Bath-1 Buffer, leaving 25 µL of residual volume. Then 25 uL per well from compound plate was transferred to each cell plate. The mixture was incubated for 30 minutes at room temp/ambient conditions. 7) The plate was read on E-VIPR using the current-controlled amplifier to deliver stimulation wave pulses using the following protocol: 1.25 Amps, 2.5 ms pulse width biphasic waveform, 10 Hz for 10 seconds at a scan rate of 200 Hz. A pre-stimulus recording was performed for 0.5 seconds to obtain the un-stimulated intensities baseline. The stimulatory waveform was followed by 0.5 seconds of post-stimulation recording to examine the relaxation to the resting state. Data Analysis: Data were analyzed and reported as normalized ratios of emission intensities measured in the 460 nm and 580 nm channels. The response as a function of time was reported as the ratios obtained using the following formula: […] The data were further reduced by calculating the initial (Ri) and final (Rf) ratios. These were the average ratio values during part or all of the pre-stimulation period and during sample points during the stimulation period. The fluorescence ratio (Rf/Ri) was then calculated and reported as a function of time. Control responses were obtained by performing assays in the presence of the positive control, and in the absence of pharmacological agents (DMSO vehicle negative control). Responses to the negative (N) and positive (P) controls were calculated as above. The compound antagonist % activity A was then defined as: [formula] where X is the ratio response of the test compound. […]

[1] = Table 20, read-out: Nav 1.8 MedChem Optical Assay EVIPR Assay Method A HS IC50
[2] = Table 20A, read-out: Nav 1.8 MedChem Optical Assay EVIPR Assay Method A HS IC50

truncated form of human NaV 1.8 with full channel activity, sequence (Q9Y5Y9 126-1722 limits assumed): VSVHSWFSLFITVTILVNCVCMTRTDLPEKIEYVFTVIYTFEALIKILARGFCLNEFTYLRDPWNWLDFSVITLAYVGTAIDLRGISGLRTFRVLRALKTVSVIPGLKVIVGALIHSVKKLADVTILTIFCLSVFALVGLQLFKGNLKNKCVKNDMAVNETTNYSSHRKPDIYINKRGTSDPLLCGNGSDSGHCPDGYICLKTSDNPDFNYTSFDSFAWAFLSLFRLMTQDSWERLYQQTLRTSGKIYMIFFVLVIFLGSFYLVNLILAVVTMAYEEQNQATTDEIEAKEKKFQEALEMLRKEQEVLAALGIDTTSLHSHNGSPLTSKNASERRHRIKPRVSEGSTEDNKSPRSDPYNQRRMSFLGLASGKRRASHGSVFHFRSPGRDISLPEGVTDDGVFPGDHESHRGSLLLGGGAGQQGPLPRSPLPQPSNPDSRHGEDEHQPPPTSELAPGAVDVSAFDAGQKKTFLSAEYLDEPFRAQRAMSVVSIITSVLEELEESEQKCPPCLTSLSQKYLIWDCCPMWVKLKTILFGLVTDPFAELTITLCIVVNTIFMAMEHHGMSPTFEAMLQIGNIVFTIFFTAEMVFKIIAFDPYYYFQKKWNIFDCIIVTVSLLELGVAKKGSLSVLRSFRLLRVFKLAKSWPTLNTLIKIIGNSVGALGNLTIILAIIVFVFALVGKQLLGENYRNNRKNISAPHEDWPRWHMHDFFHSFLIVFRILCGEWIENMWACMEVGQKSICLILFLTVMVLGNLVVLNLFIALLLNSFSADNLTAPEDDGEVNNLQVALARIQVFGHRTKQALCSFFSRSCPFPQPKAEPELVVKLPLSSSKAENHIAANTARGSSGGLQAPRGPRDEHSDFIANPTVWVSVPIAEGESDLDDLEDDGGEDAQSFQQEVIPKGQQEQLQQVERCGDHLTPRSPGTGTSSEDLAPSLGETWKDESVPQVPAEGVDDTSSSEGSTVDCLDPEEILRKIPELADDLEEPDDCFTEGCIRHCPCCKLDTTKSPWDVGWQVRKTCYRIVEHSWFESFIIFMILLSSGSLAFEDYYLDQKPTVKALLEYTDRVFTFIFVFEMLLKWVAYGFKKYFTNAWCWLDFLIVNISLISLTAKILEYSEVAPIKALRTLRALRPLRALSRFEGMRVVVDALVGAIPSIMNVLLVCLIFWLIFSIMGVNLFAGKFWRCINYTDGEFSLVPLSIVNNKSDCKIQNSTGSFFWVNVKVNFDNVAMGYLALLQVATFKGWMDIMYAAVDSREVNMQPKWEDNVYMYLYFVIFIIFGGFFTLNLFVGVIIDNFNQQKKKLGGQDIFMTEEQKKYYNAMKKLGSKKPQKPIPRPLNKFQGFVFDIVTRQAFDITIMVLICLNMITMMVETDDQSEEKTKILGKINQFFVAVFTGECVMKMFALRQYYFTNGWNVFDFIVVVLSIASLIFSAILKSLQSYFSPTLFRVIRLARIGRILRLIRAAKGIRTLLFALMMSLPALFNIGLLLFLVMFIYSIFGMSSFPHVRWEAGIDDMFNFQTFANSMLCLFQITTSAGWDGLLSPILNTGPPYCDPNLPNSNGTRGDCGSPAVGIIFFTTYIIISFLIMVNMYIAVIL

IC50 [1] [nM]	IC50 [2] [nM]	Structure (SMILES)
10		COc1cc(OC(F)(F)F)ccc1Oc1cc(OC(F)F)cc(F)c1C(=O)Nc1ccnc(C(N)=O)c1 [Compound 20, 4-[[4-(difluoromethoxy)-2-fluoro-6-[2-methoxy-4-(trifluoromethoxy)phenoxy]benzoyl]amino]pyridine-2-carboxamide]
	11	COc1cc(OC(F)(F)F)ccc1Oc1cc(C(F)(F)F)cc(F)c1C(=O)Nc1ccnc(C(N)=O)c1 [Compound 163, 4-[[2-Fluoro-6-[2-methoxy-4-(trifluoromethoxy)phenoxy]-4-(trifluoromethyl)benzoyl]amino]pyridine-2-carboxamide]
	9	[2H]C([2H])([2H])Oc1cc(OC(F)(F)F)ccc1Oc1ccc(C(F)(F)F)c(F)c1C(=O)Nc1ccc(C)c(C(N)=O)c1 [Compound 145, N-(3-carbamoyl-4-methyl-phenyl)-2-fluoro-6-[2-(trideuteriomethoxy)-4-(trifluoromethoxy)phenoxy]-3-(trifluoromethyl)benzamide]
	50	[2H]C([2H])([2H])Oc1cc(OC(F)(F)F)ccc1Oc1ccc(C(F)(F)F)c(F)c1C(=O)Nc1ccc(C(=O)NC)nc1 [Compound 209, 5-[[2-fluoro-6-[2-(trideuteriomethoxy)-4-(trifluoromethoxy)phenoxy]-3-(trifluoromethyl)benzoyl]amino]-N-methyl-pyridine-2-carboxamide]
	55	[2H]C([2H])([2H])Oc1cc(OC(F)(F)F)ccc1Oc1cc(C(F)(F)F)cc(F)c1C(=O)Nc1ccc(C(N)=O)nc1 [Compound 154]
	7	COc1nc(Cl)ccc1Oc1ccc(C(F)(F)F)c(F)c1C(=O)Nc1ccc(F)c(C(N)=O)c1 [Compound 54, N-(3-Carbamoyl-4-fluoro-phenyl)-6-[(6-chloro-2-methoxy-3-pyridyl)oxy]-2-fluoro-3-(trifluoromethyl)benzamide]
	580	COc1cc(OC(F)(F)F)ccc1Oc1cc(C(F)(F)F)ncc1C(=O)Nc1cc(C)nc(C(N)=O)c1 [Compound 84, 4-[[4-[2-Methoxy-4-(trifluoromethoxy)phenoxy]-6-(trifluoromethyl)pyridine-3-carbonyl]amino]-6-methyl-pyridine-2-carboxamide]
	1600	COc1cc(OC(F)(F)F)ccc1Oc1cncc(F)c1C(=O)Nc1ccc(F)c(C(N)=O)n1 [Compound 164, 3-Fluoro-6-[[3-fluoro-5-[2-methoxy-4-(trifluoromethoxy)phenoxy]pyridine-4-carbonyl]amino]pyridine-2-carboxamide]
	> 3100	COc1cc(F)ccc1-c1cnc(C(F)(F)F)cc1C(=O)Nc1ccc(F)c(C(N)=O)c1 [Compound 200, N-(3-carbamoyl-4-fluoro-phenyl)-5-(4-fluoro-2-methoxy-phenyl)-2-(trifluoromethyl)pyridine-4-carboxamide]
	2100	NC(=O)c1ccc(NC(=O)c2c(Cl)cc(Cl)cc2Oc2ccc(F)cc2)cn1 [Compound 181, 5-[[2,4-Dichloro-6-(4-fluorophenoxy)benzoyl]amino]pyridine-2-carboxamide]
	160	[2H]C([2H])([2H])Oc1cc(OC(F)(F)F)ccc1Oc1ccc(C(F)(F)F)c(F)c1C(=O)Nc1ccc(C(N)=O)nc1C [Compound 188, 5-[[2-Fluoro-6-[2-(trideuteriomethoxy)-4-(trifluoromethoxy)phenoxy]-3-(trifluoromethyl)benzoyl]amino]-6-methyl-pyridine-2-carboxamide]
	14	COc1cc(OC(F)(F)F)ccc1Oc1cc(Cl)cc(F)c1C(=O)Nc1ccnc(C(N)=O)c1 [Compound 170, 4-[[4-Chloro-2-fluoro-6-[2-methoxy-4-(trifluoromethoxy)phenoxy]benzoyl]amino]pyridine-2-carboxamide]
	35	COc1cc(OC(F)(F)F)ccc1Oc1ccc(F)c(Cl)c1C(=O)Nc1ccnc(C(N)=O)c1 [Compound 171, 4-[[2-Chloro-3-fluoro-6-[2-methoxy-4-(trifluoromethoxy)phenoxy]benzoyl]amino]pyridine-2-carboxamide]
	20	COc1cc(OC(F)(F)F)ccc1Oc1cc(C(F)(F)F)ncc1C(=O)Nc1ccc(F)c(C(N)=O)c1 [Compound 30, N-(3-Carbamoyl-4-fluoro-phenyl)-4-[2-methoxy-4-(trifluoromethoxy)phenoxy]-6-(trifluoromethyl)pyridine-3-carboxamide]
	4	[2H]C([2H])([2H])Oc1c(Oc2cc(Cl)c(C(F)F)c(F)c2C(=O)Nc2ccnc(C(N)=O)c2)ccc(OC(F)(F)F)c1F [Compound 234, 4-[[4-Chloro-3-(difluoromethyl)-2-fluoro-6-[3-fluoro-2-(trideuteriomethoxy)-4-(trifluoromethoxy)phenoxy]benzoyl]amino]pyridine-2-carboxamide]
	140	NC(=O)c1cc(NC(=O)c2c(Oc3ccc(OC(F)(F)F)cc3)ccc(F)c2F)ccc1F [Compound 63, N-(3-Carbamoyl-4-fluoro-phenyl)-2,3-difluoro-6-[4-(trifluoromethoxy)phenoxy]benzamide]
	34	COc1cc(OC(F)(F)F)ccc1Oc1cccc(C(F)(F)F)c1C(=O)Nc1ccc(F)c(C(N)=O)c1 [Compound 40, N-(3-Carbamoyl-4-fluoro-phenyl)-2-[2-methoxy-4-(trifluoromethoxy)phenoxy]-6-(trifluoromethyl)benzamide]
	56	COc1cc(OC(F)(F)F)ccc1Oc1cc2c(cc1C(=O)Nc1ccc(F)c(C(N)=O)c1)OC(F)(F)O2 [Compound 122, N-(3-Carbamoyl-4-fluoro-phenyl)-2,2-difluoro-6-[2-methoxy-4-(trifluoromethoxy)phenoxy]-1,3-benzodioxole-5-carboxamide]
	200	N#Cc1cc(F)ccc1Oc1ccc(C(F)(F)F)c(F)c1C(=O)Nc1ccc(F)c(C(N)=O)c1 [Compound 295, N-(3-carbamoyl-4-fluoro-phenyl)-6-(2-cyano-4-fluoro-phenoxy)-2-fluoro-3-(trifluoromethyl)benzamide]
	69	COc1cc(OC(F)(F)F)ccc1Oc1ccc(F)c(Cl)c1C(=O)Nc1cc(C(N)=O)ncc1C [Compound 129, 4-[[2-Chloro-3-fluoro-6-[2-methoxy-4-(trifluoromethoxy)phenoxy]benzoyl]amino]-5-methyl-pyridine-2-carboxamide]
	7	[2H]C([2H])([2H])Oc1c(Oc2ccc(C(F)(F)F)c(F)c2C(=O)Nc2ccnc(C(=O)NC)c2)ccc(OC(F)(F)F)c1F [Compound 228, 4-[[2-Fluoro-6-[3-fluoro-2-(trideuteriomethoxy)-4-(trifluoromethoxy)phenoxy]-3-(trifluoromethyl)benzoyl]amino]-N-methyl-pyridine-2-carboxamide]
	69	NC(=O)c1cc(NC(=O)c2cc(C(F)(F)C(F)(F)F)ccc2Oc2ccc(OC(F)(F)F)cc2)ccc1F [Compound 79, N-(3-Carbamoyl-4-fluoro-phenyl)-5-(1,1,2,2,2-pentafluoroethyl)-2-[4-(trifluoromethoxy)phenoxy]benzamide]
	32	NC(=O)c1cc(NC(=O)c2c(Oc3ccc(OC(F)(F)F)cc3)ccc3c2CCC3(F)F)ccc1F [Compound 190, N-(3-Carbamoyl-4-fluoro-phenyl)-1,1-difluoro-5-[4-(trifluoromethoxy)phenoxy]indane-4-carboxamide]
11		COc1cc(OC(F)(F)F)ccc1Oc1cc(C2CC2)cc(F)c1C(=O)Nc1ccnc(C(N)=O)c1 [Compound 22, 4-[[4-cyclopropyl-2-fluoro-6-[2-methoxy-4-(trifluoromethoxy)phenoxy]benzoyl]amino]pyridine-2-carboxamide]
